Where two headings read alike, the source gives them in different places.
What was measured:
human Nav.1.7 = molecular target: T1, human Nav.1.7 (Homo sapiens, UniProt Q15858); experiment: Nav1.7 spiking HEK assay on Swarm; assay type: cell-based
T1 construct: expressed in transfected cells

Nav1.5 = details: cited from earlier work
[1] = normalized mean spike amplitude score, Prestwick library compounds
[2] = read-out: Nav1.5 Ionworks (IC50), automated patch clamp, literature reported, ref Harmer et al., 2011
[3] = compounds at 1 μM, cutoff 0.5 mean spike amplitude

T1 sequence (Q15858 whole entry): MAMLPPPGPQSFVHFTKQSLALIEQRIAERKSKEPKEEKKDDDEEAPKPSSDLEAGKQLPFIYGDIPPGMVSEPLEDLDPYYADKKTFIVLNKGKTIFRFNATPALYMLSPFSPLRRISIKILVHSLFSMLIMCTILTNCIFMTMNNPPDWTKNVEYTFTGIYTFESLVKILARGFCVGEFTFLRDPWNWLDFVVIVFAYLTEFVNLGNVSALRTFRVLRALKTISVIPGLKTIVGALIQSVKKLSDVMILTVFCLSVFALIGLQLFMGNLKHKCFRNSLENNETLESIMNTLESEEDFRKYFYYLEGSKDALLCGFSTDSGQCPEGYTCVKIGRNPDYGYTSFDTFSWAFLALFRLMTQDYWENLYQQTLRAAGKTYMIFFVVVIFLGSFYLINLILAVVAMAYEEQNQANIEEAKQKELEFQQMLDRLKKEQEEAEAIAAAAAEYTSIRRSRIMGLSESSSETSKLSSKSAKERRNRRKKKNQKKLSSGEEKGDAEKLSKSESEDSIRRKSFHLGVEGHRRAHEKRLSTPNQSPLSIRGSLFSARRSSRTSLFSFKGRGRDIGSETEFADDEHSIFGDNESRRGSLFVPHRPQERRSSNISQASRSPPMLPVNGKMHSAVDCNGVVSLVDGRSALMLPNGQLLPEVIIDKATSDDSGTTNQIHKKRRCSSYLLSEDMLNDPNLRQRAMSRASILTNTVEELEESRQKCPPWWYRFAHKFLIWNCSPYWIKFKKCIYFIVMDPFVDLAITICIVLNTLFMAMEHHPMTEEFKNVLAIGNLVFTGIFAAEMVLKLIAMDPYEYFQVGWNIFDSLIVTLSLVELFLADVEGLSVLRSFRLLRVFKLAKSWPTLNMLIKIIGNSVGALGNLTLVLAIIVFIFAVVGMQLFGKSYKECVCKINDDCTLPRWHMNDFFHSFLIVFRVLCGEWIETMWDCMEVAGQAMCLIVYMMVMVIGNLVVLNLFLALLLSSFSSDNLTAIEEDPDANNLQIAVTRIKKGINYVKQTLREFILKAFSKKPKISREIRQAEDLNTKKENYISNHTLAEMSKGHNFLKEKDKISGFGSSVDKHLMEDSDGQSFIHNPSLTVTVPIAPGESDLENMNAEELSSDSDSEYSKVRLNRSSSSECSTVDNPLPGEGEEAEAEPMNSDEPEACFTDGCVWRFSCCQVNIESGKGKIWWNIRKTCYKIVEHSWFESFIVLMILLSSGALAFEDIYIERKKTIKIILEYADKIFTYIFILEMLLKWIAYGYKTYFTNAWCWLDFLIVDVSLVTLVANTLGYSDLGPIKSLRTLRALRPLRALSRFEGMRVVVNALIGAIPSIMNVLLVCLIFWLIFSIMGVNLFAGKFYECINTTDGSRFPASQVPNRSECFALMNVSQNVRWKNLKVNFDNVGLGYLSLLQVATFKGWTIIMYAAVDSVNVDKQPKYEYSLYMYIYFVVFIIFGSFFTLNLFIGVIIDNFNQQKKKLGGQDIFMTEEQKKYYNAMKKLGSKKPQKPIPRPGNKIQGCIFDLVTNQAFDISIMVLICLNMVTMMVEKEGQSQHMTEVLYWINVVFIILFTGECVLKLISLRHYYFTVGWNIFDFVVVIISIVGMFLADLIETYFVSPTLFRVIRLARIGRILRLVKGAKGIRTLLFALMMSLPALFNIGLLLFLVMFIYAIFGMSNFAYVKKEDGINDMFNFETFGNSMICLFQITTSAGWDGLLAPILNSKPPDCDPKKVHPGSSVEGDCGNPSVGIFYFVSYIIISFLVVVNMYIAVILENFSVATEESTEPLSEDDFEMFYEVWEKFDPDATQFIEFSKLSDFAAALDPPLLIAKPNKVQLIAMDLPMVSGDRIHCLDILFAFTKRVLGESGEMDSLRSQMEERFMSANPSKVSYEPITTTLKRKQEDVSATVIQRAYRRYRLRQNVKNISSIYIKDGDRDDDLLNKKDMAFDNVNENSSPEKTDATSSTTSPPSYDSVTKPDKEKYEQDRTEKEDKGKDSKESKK

Row | SMILES | Nav1.7 Swarm (score at 3 µM) (human Nav.1.7; [1]) | IC50 (Nav1.5; [2]) [µM] | further results
1 | CC(C)NC[C@@H](O)COc1cccc2ccccc12 [(R)-Propranolol] | 0.63 | – | IC50 (Nav1.5): 7.5 µM
2 | Nc1c(Br)cc(Br)cc1CN[C@H]1CC[C@H](O)CC1 [Ambroxol] | 0.80 | 15.2 | –
3 | CCCCc1oc2ccccc2c1C(=O)c1cc(I)c(OCCN(CC)CC)c(I)c1 [Amiodarone] | – | – | Nav1.7 Swarm (score at 3 µM) (human Nav.1.7): 0.52
4 | CCN(CC)Cc1cc(Nc2ccnc3cc(Cl)ccc23)ccc1O [Amodiaquin] | 0.95 | 9.7 | –
5 | Clc1ccc2c(c1)C(N1CCNCC1)=Nc1ccccc1O2 [Amoxapine] | – | 5.8 | –
6 | COc1ccc(CCN2CCC(Nc3nc4ccccc4n3Cc3ccc(F)cc3)CC2)cc1 [Astemizole] | 0.01 | 2.3 | –
7 | CC(C)COCC(CN(Cc1ccccc1)c1ccccc1)N1CCCC1 (stereo not shown) [Bepridil] | – | – | IC50 (Nav1.5): 1.9 µM
8 | CCN(CC)CCNC(=O)c1cc(Br)c(N)cc1OC [Bromopride] | 0.92 | 41.4 | –
9 | CCCCN1CCCCC1C(=O)Nc1c(C)cccc1C (stereo not shown) [Bupivacaine] | 0.27 | 4.3 | –
10 | CC(NC(C)(C)C)C(=O)c1cccc(Cl)c1 (stereo not shown) [Bupropion] | 0.97 | 76.2 | –
11 | O=C1CC2(CCCC2)CC(=O)N1CCCCN1CCN(c2ncccn2)CC1 [Buspirone] | 0.97 | 125 | –
12 | O=C(N[C@H](CO)[C@H](O)c1ccc([N+](=O)[O-])cc1)C(Cl)Cl [Chloramphenicol] | 1.07 | 215 | –
13 | CCN(CC)CCCC(C)Nc1ccnc2cc(Cl)ccc12 (stereo not shown) [Chloroquine] | – | – | Nav1.7 Swarm (score at 3 µM) (human Nav.1.7): 0.98; IC50 (Nav1.5): 36.5 µM
14 | CN(C)CCCN1c2ccccc2Sc2ccc(Cl)cc21 [Chlorpromazine] | 0.32 | 2.8 | –
15 | CN(C)CCCC1(c2ccc(F)cc2)OCc2cc(C#N)ccc21 (stereo not shown) [Citalopram] | 0.92 | 14.7 | –
16 | CN(C)CCCN1c2ccccc2CCc2ccc(Cl)cc21 [Clomipramine] | – | 2.6 | Hit identification in Prestwick Chemical Library pilot screen (human Nav.1.7): hits; Nav1.7 Swarm (score at 3 µM) (human Nav.1.7): 0.20
17 | CN1CCN(C2=Nc3cc(Cl)ccc3Nc3ccccc32)CC1 [Clozapine] | 0.74 | 11.6 | –

Row | SMILES | Nav1.7 Swarm (score at 3 µM) (human Nav.1.7; [1]) | IC50 (Nav1.5; [2]) [µM] | further results
18 | CN1CCC(=C2c3ccccc3C=Cc3ccccc32)CC1 [Cyproheptadine] | 0.44 | 6.1 | –
19 | CNCCCN1c2ccccc2CCc2ccccc21 [Desipramine] | 0.38 | 2.4 | Hit identification in Prestwick Chemical Library pilot screen (human Nav.1.7; [3]): hits
20 | COc1ccc([C@@H]2Sc3ccccc3N(CCN(C)C)C(=O)[C@@H]2OC(C)=O)cc1 [Diltiazem] | 0.82 | 14.2 | –
21 | OCCN(CCO)c1nc(N2CCCCC2)c2nc(N(CCO)CCO)nc(N3CCCCC3)c2n1 [Dipyridamole] | 0.92 | 19.3 | –
22 | CC(C)N(CCC(C(N)=O)(c1ccccc1)c1ccccn1)C(C)C (stereo not shown) [Disopyramide] | 0.94 | 302 | –
23 | O=c1[nH]c2ccccc2n1CCCN1CCC(n2c(=O)[nH]c3cc(Cl)ccc32)CC1 [Domperidone] | 0.53 | 5.6 | –
24 | C=C1C[C@@H]2[C@H](CC[C@]3(C)C(=O)CC[C@@H]23)[C@@]2(C)C=CC(=O)C=C12 [Exemestane] | 0.90 | 71.3 | –
25 | O=C(NCC1CCCCN1)c1cc(OCC(F)(F)F)ccc1OCC(F)(F)F (stereo not shown) [Flecainide] | 0.72 | 5.8 | –
26 | Fc1ccc(C(c2ccc(F)cc2)N2CCN(C/C=C/c3ccccc3)CC2)cc1 [Flunarizine] | 0.16 | 2.6 | –
27 | CNCCC(Oc1ccc(C(F)(F)F)cc1)c1ccccc1 (stereo not shown) [Fluoxetine] | – | 4.9 | Nav1.7 Swarm (score at 3 µM) (human Nav.1.7): 0.64
28 | OCCN1CCN(CCCN2c3ccccc3Sc3ccc(C(F)(F)F)cc32)CC1 [Fluphenazine] | 0.31 | 8 | –
29 | O=C(CCCN1CCC(O)(c2ccc(Cl)cc2)CC1)c1ccc(F)cc1 [Haloperidol] | -0.09 | 2.3 | –
30 | OCCOCCN1CCN(C(c2ccccc2)c2ccc(Cl)cc2)CC1 (stereo not shown) [Hydroxyzine] | 0.56 | 32.8 | –
31 | CN(C)CCCN1c2ccccc2CCc2ccccc21 [Imipramine] | 0.35 | – | Hit identification in Prestwick Chemical Library pilot screen (human Nav.1.7; [3]): hits
32 | CC(=O)N1CCN(c2ccc(OCC3COC(Cn4ccnc4)(c4ccc(Cl)cc4Cl)O3)cc2)CC1 (stereo not shown) [Ketoconazole] | 0.96 | 44.9 | –
33 | CCN(CC)CC(=O)Nc1c(C)cccc1C [Lidocaine] | – | – | Nav1.7 Swarm (score at 3 µM) (human Nav.1.7): 0.91; IC50 (human Nav.1.7; 8 mM bath [K+], mean spike amplitude across all test pulses): 15 µM
34 | CC(Oc1c(Cl)cccc1Cl)C1=NCCN1 (stereo not shown) [Lofexidine] | 0.88 | 27.2 | –

Source: paper PMC9289666, “Highly Parallelized, Multicolor Optogenetic Recordings of Cellular Activity for Therapeutic Discovery Applications in Ion Channels and Disease-Associated Excitable Cells” (Frontiers in Molecular Neuroscience, 2022)
